In BindingDB's records for doi:10.1016/s0960-894x(01)00631-x (Novartis Pharma, 2001) one finds IC50 data, which are given here for nine compounds.

Usually pIC50 stands for −log10 of the IC50, conventionally taken in molar units. A higher pIC50 goes with a low IC50.

pIC50: −log10 of the molar value.

The assay concerns the target Substance-P receptor (Bos taurus). Briefly: In vitro binding affinity for Tachykinin receptor 1 of bovine retinal membranes using [3H]Sar9-substance P as radioligand.

Take `CN(C(=O)c1cc(C(F)(F)F)cc(C(F)(F)F)c1)N(CCC(=O)N[C@@H]1CCCCNC1=O)Cc1ccc2ccccc2c1` [3-[N'-(3,5-Bis-trifluoromethyl-benzoyl)-N'-methyl-N-naphthalen-2-ylmethyl-hydrazino]-N-((R)-2-oxo-azepan-3-yl)-propionamide]: the pIC50 was 8.19.

The compound `CN(C(=O)c1cc(C(F)(F)F)cc(C(F)(F)F)c1)N(CCC(=O)N[C@@H]1CCCCNC1=O)Cc1ccc(Cl)c(Cl)c1` [3-[N'-(3,5-Bis-trifluoromethyl-benzoyl)-N-(3,4-dichloro-benzyl)-N'-methyl-hydrazino]-N-((R)-2-oxo-azepan-3-yl)-propionamide] had a pIC50 of 8.85.

In the case of `CN(C(=O)c1cc(C(F)(F)F)cc(C(F)(F)F)c1)N(CCC(=O)N[C@@H]1CCCCNC1=O)Cc1cc(Br)c(Br)s1` [3-[N'-(3,5-Bis-trifluoromethyl-benzoyl)-N-(4,5-dibromo-thiophen-2-ylmethyl)-N'-methyl-hydrazino]-N-((R)-2-oxo-azepan-3-yl)-propionamide], the pIC50 was 7.74.

On to `CN(C(=O)c1cc(C(F)(F)F)cc(C(F)(F)F)c1)[C@@H](/C=C/C(=O)N[C@@H]1CCCCNC1=O)Cc1cn(C)c2ccccc12` [N-Methyl-N-[(E)-(R)-1-(1-methyl-1H-indol-3-ylmethyl)-3-((R)-2-oxo-azepan-3-ylcarbamoyl)-allyl]-3,5-bis-trifluoromethyl-benzamide], for which the pIC50 is 9.30.

Take `CN(C(=O)c1cc(C(F)(F)F)cc(C(F)(F)F)c1)[C@@H](/C=C/C(=O)N[C@@H]1CCCCNC1=O)Cc1ccc2ccccc2c1` [N-Methyl-N-[(E)-(R)-1-naphthalen-2-ylmethyl-3-((R)-2-oxo-azepan-3-ylcarbamoyl)-allyl]-3,5-bis-trifluoromethyl-benzamide]: the pIC50 was 8.96.

Compound `CN(C(=O)c1cc(C(F)(F)F)cc(C(F)(F)F)c1)[C@@H](/C=C/C(=O)N[C@@H]1CCCCNC1=O)Cc1cc(Br)c(Br)s1` [N-[(E)-(R)-1-(4,5-Dibromo-thiophen-2-ylmethyl)-3-((R)-2-oxo-azepan-3-ylcarbamoyl)-allyl]-N-methyl-3,5-bis-trifluoromethyl-benzamide] gave a pIC50 of 7.70.

As to `CN(C(=O)c1cc(C(F)(F)F)cc(C(F)(F)F)c1)[C@@H](/C=C/C(=O)NC1CCCCCC1)Cc1ccc(Cl)cc1` [N-[(E)-(R)-1-(4-Chloro-benzyl)-3-cycloheptylcarbamoyl-allyl]-N-methyl-3,5-bis-trifluoromethyl-benzamide], the pIC50 is 7.92.

Turning to `CN(C(=O)c1cc(C(F)(F)F)cc(C(F)(F)F)c1)[C@@H](/C=C/C(=O)NC1(C(N)=O)CCCCC1)Cc1ccc(Cl)cc1` [N-[(E)-(R)-3-(1-Carbamoyl-cyclohexylcarbamoyl)-1-(4-chloro-benzyl)-allyl]-N-methyl-3,5-bis-trifluoromethyl-benzamide], the pIC50 is 9.00.

`CN(C(=O)c1cc(C(F)(F)F)cc(C(F)(F)F)c1)[C@@H](/C=C/C(=O)N[C@@H]1CCCCNC1=O)Cc1ccc(Cl)c(Cl)c1` [N-[(R,R)-(E)-(3,4-dichlorobenzyl)-3-(2-oxoazepan-3-yl)carbamoyl]allyl-N-methyl-3,5-bis(trifluoromethyl)benzamide] gave a pIC50 of 8.32.
